Common to all, as to experiment: NCI tumour cell line growth inhibition, 48 h
Assay [1] has as its system ACHN.
Assay [2] relates to CAKI-1.
For assay [3], the system named is EKVX.
In assay [4] the test system is HCT-15.
For assay [5], the system named is HT-29.
Assay [6] relates to K562.
The test system of assay [7] is LOX IMVI.
For assay [8], the system named is M14.
The test system of assay [9] is MCF7.
For assay [10], the system named is NCI-H460.
The test system of assay [11] is NCI-H522.
In assay [12] the test system is OVCAR-3.
The test system of assay [13] is OVCAR-8.
For assay [14], the system named is PC-3.
Assay [15] concerns RPMI-8226.
Assay [16] relates to SF-539.
Assay [17] relates to SK-MEL-28.
Assay [18] concerns SK-OV-3.
For assay [19], the system named is SNB-75.
The test system of assay [20] is SR.

From ChEMBL document CHEMBL1201862, “PubChem BioAssay data set” (2004) come the findings set out here.

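Cells were grown in 96-well plates and exposed to each compound for 48 hours at five concentrations; endpoints were interpolated linearly between bracketing concentrations, or set to the highest concentration if not reached. Here, GI50 denotes the concentration required for 50% inhibition of growth.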 The source made the active and inactive calls. Cut-off read from the data, not from the text of the source: active = GI50 up to about 1.1 µM and inactive = higher. Where a SMILES comes first, the peptide text is derived from it. The star is where a group is joined. Cbz = O=C(OCc1ccccc1)*; Boc = CC(C)(C)OC(=O)*; OSu = O=C1CCC(=O)N1O*; Bn = c1ccc(C*)cc1 A value given as a limit tells only on which side of the number the result lay.

For the compound `N=C(N)NCCNC(=N)N`, the GI50 in assay [1] was > 100 µM (inactive); in assay [2], > 100 µM (inactive); in assay [3], > 100 µM (inactive); in [4], above 100 µM; in assay [5], > 100 µM (inactive); in assay [6], > 100 µM (inactive). Besides, the GI50 in [7], in [8], in assay [9], in assay [10], in [11] and in assay [12] was > 100 µM (inactive) each time. In addition, the GI50 in [13], in assay [14], in assay [15], in assay [16], in assay [17] and in assay [18] was > 100 µM (inactive) in each case. Also, the GI50 in [19] was 89.9 µM (inactive).
Take `O=C(N/N=C/c1ccco1)c1cc(I)cc(I)c1O`: the GI50 in assay [1] is 22 µM (inactive); in assay [2], 19.4 µM (inactive); in [3] it was 12.4 µM (inactive); in assay [4], 19.7 µM; in [5], 6.41 µM (inactive); in assay [6], 27.6 µM (inactive). Also, the GI50 was 16.4 µM (inactive) in assay [7]; 8.24 µM (inactive) in [8]; 24.2 µM (inactive) in assay [9]; 27.2 µM (inactive) in assay [11]; 19.4 µM (inactive) in [13]; 35.2 µM (inactive) in [14]. Also, the GI50 is 15.2 µM (inactive) in assay [15], 11.8 µM (inactive) in assay [16], 28.2 µM (inactive) in [17] and 37.2 µM (inactive) in [19].
Consider `CC(NC(=O)OC(C)(C)C)C(=O)NC(Cc1ccccc1)C(=O)NCC(=O)Oc1c(Cl)c(Cl)c(Cl)c(Cl)c1Cl` (stereo not drawn), for which the GI50 was 25 µM (inactive) in assay [1]; 17.8 µM (inactive) in assay [3]; above 10 µM in assay [4]; 23.7 µM (inactive) in [5]; 30.6 µM (inactive) in assay [6]; 26.2 µM (inactive) in assay [8]. Besides, the GI50 is 21.9 µM (inactive) in assay [9]; 25.6 µM (inactive) in [10]; 19.6 µM (inactive) in [13]; 20.3 µM (inactive) in assay [14]; 23.2 µM (inactive) in [15]; 20.7 µM (inactive) in assay [17]. The GI50 was 34.6 µM (inactive) in [19] and 25 µM (inactive) in [20].
In the case of `Nc1nncc2[nH]nnc12`, the GI50 was > 100 µM (inactive) in assay [1]; > 100 µM (inactive) in assay [2]; > 100 µM (inactive) in assay [3]; above 100 µM in [4]; > 100 µM (inactive) in assay [5]; 0.186 µM (active) in assay [6]. The GI50 in [8], in assay [9], in assay [10], in assay [12], in assay [13] and in assay [14] was > 100 µM (inactive) each time. Further, the GI50 in assay [15] was > 100 µM (inactive); in assay [16] it was > 100 µM (inactive); in assay [17], > 100 µM (inactive); in assay [19], > 100 µM (inactive); in assay [20], 22.9 µM (inactive).
Consider `COc1ccc2c(C)cc(=O)oc2c1OC`, for which the GI50 was > 100 µM (inactive) in [1]; > 100 µM (inactive) in [3]; above 100 µM in assay [4]; > 100 µM (inactive) in [5]; > 100 µM (inactive) in assay [6]; > 100 µM (inactive) in assay [7]. Also, the GI50 in assay [8], in assay [9], in assay [12], in assay [13], in assay [14] and in assay [15] was > 100 µM (inactive) each time. The GI50 in assay [17], in [18], in assay [19] and in assay [20] was > 100 µM (inactive) each time.
On to `Cn1cnc(C(N)=[Se])c1N`, for which the GI50 was 2.6 µM (inactive) in assay [1]; 3.27 µM (inactive) in [2]; 2.05 µM (inactive) in [3]; 3.63 µM in assay [4]; 5.35 µM (inactive) in assay [5]; 3.26 µM (inactive) in assay [7]. For the same compound, the GI50 is 4.44 µM (inactive) in assay [8]; 3.15 µM (inactive) in assay [9]; 0.183 µM (active) in [10]; 2.19 µM (inactive) in [11]; 2.03 µM (inactive) in assay [12]; 1.92 µM (inactive) in assay [13]. Further, the GI50 was 2.24 µM (inactive) in [14]; 2.94 µM (inactive) in assay [15]; 2.02 µM (inactive) in [16]; 3.39 µM (inactive) in assay [17]; 1.25 µM (inactive) in assay [18]; 2.2 µM (inactive) in assay [19].
As to `CCN(CC)CCN1CCN=C2c3cc(OC)ccc3Nc3c([N+](=O)[O-])ccc1c32`, the GI50 in [2] was 1.93 µM (inactive); in assay [3], 1.69 µM (inactive); in assay [4], 0.845 µM; in assay [5], 0.881 µM (active); in assay [6], 0.575 µM (active); in assay [7], 1.41 µM (inactive). For the same compound, the GI50 is 1 µM (active) in assay [8]; 0.551 µM (active) in [9]; 0.441 µM (active) in assay [13]; 0.697 µM (active) in [14]; 0.64 µM (active) in assay [15]; 1 µM (active) in [17]. Besides, the GI50 is 2.52 µM (inactive) in assay [18], 1.95 µM (inactive) in [19] and 0.221 µM (active) in [20].
Take `COc1ccc(C(SC2C(O)C(CO)OC2n2ccc(=O)[nH]c2=O)(c2ccccc2)c2ccc(OC)cc2)cc1` (stereo not drawn): the GI50 in assay [1] was 29 µM (inactive); in [2] it was 30.4 µM (inactive); in assay [3] it was 17.1 µM (inactive); in [4] it was 15.5 µM; in assay [5], 17.6 µM (inactive); in assay [6], 31.6 µM (inactive). The GI50 is 16.9 µM (inactive) in assay [7]; 11.3 µM (inactive) in [8]; 17.1 µM (inactive) in [9]; 10.9 µM (inactive) in assay [10]; 14.7 µM (inactive) in assay [11]; 17.6 µM (inactive) in assay [12]. Also, the GI50 in assay [13] was 19.1 µM (inactive); in assay [14], 14.9 µM (inactive); in assay [15], 32.8 µM (inactive); in assay [16], 22 µM (inactive); in [17], 21.8 µM (inactive); in assay [18] it was 13.7 µM (inactive). Besides, the GI50 in [19] is 18.5 µM (inactive).
As to `NC1=C(Cl)C(=O)c2c(O)ccc(O)c2C1=O`, the GI50 was 4.88 µM (inactive) in assay [1]; 16.5 µM (inactive) in assay [2]; 12 µM (inactive) in assay [3]; 3.37 µM in [4]; 2.54 µM (inactive) in assay [5]; 22.4 µM (inactive) in [6]. The GI50 in assay [7] is 1.79 µM (inactive); in [8] it was 1.85 µM (inactive); in assay [9], 1.55 µM (inactive); in assay [10], 1.91 µM (inactive); in assay [11] it was 14.6 µM (inactive); in [12], 2.22 µM (inactive). The GI50 in [13] was 3.82 µM (inactive); in assay [14] it was 3.47 µM (inactive); in [15], 4.75 µM (inactive); in [16] it was 2.84 µM (inactive); in assay [17], 2.39 µM (inactive); in [18], 20.9 µM (inactive). In addition, the GI50 in assay [19] was 5.41 µM (inactive).
Take `CCN(CC)CCCNc1ccc2nc(C)n3c4ccc(O)cc4c(=O)c1c23`: the GI50 in [1] was 3.01 µM (inactive); in assay [2] it was 4.78 µM (inactive); in [3], 11.4 µM (inactive); in [4] it was 3.62 µM; in assay [5], 1.17 µM (inactive); in assay [6], 2.97 µM (inactive). The GI50 is 1.14 µM (inactive) in assay [7]; 8.61 µM (inactive) in assay [8]; 0.863 µM (active) in assay [9]; 0.838 µM (active) in assay [10]; 0.485 µM (active) in assay [11]; 8.09 µM (inactive) in assay [12]. In addition, the GI50 in assay [13] was 1.95 µM (inactive); in [14], 1.47 µM (inactive); in assay [15], 1.9 µM (inactive); in [16], 9.38 µM (inactive); in [17], 12.7 µM (inactive); in assay [18] it was 6.64 µM (inactive). In addition, the GI50 in [19] is 0.881 µM (active).
As for `CC(C)(C)OC(=O)NC(Cc1ccc(OCc2ccccc2)cc1)C(=O)NC(CCCCNC(=O)OCc1ccccc1)C(=O)ON1C(=O)CCC1=O` (stereo not drawn) (Boc-Tyr(Bn)-Lys(Cbz)-OSu; configuration not given here), the GI50 was 20.7 µM (inactive) in assay [1]; 42.6 µM (inactive) in [3]; 16.7 µM in assay [4]; 23.5 µM (inactive) in assay [5]; 27 µM (inactive) in [6]; 19.4 µM (inactive) in [8]. The GI50 in assay [9] was 19.8 µM (inactive); in assay [10] it was 21.7 µM (inactive); in assay [13], 20.8 µM (inactive); in assay [14], 22.1 µM (inactive); in assay [15], 20 µM (inactive); in assay [17] it was 15.8 µM (inactive). Moreover, the GI50 in [19] was 21.8 µM (inactive); in [20], 25.4 µM (inactive).
For `O[C@H]1[C@H](O)[C@@H](O)[C@H](O)[C@@H](O)[C@H]1O` [INOSITOL], the GI50 in assay [1] was > 1000 µM (inactive); in assay [4], above 1000 µM; in assay [5], > 1000 µM (inactive); in assay [6], > 1000 µM (inactive); in assay [7], > 1000 µM (inactive); in [8] it was > 1000 µM (inactive). Moreover, the GI50 in assay [9], in assay [10], in assay [12], in assay [13], in [14] and in [15] was > 1000 µM (inactive) each time. The GI50 was > 1000 µM (inactive) in [16]; > 1000 µM (inactive) in assay [17]; > 1000 µM (inactive) in [18]; 0.1 µM (active) in [19]; 56.6 µM (inactive) in assay [20].
